# Reference: patent publication US8604049B2, “4-dimethylamino-phenyl-substituted naphthyridines, and use thereof as medicaments” (Boehringer Ingelheim International GmbH, priority 2008, dated 2013)
# Where two headings read alike, the source gives them in different places.
# Target: T1, Recombinant human Syk (GST-Syk kinase fusion protein) (Homo sapiens, UniProt P43405)
# T1 construct: made in house
# Assay: Syk Kinase Test (Kinase Glo luminescence)
# Assay type: biochemical
# Settings: read-out: SYK inh % at 1 μM
# Experimental: The catalytic activity of the GST-Syk kinase fusion protein was determined using the Kinase Glo® Luminescence Kinase test of Messrs Promega. In this homogeneous test the amount of ATP remaining after the kinase reaction has been carried out is quantified by a luciferin-luciferase reaction using luminescence. The luminescence signal obtained correlates with the amount of ATP still present and thus correlates inversely with the activity of the protein kinase.
# GST-Syk was diluted to 6.0 nM in the test buffer and 10 μl of this dilution were used in the kinase test (final concentration of Syk=4 nM in a total volume of 15 μl).
# Positive controls are the reaction mixtures that contain no test substance; negative controls are reaction mixtures that contain no kinase.
# After 60 minutes, 10 μl Kinase-Glo® solution (Promega, Cat. #V6712) (heated to ambient temperature) are added to each well and incubation is continued for a further 15 minutes at ambient temperature.
# Data Evaluation and Calculation:
# The output file of the “MicroBeta TRILUX” is a text file that contains the well number and measurements obtained. […] Then from this the % inherent value for the measurement of each substance concentration was calculated using an “MS-Excel—VB macro”. […] The IC50 values were calculated from the % inhibition values using “GraphPadPrism” software (Version 5) (GraphPad Software Inc.).
# [1] = 1 μM test substance, 4 nM GST-Syk
SMILES,inhibition at 1 µM [1],inhibition at 1 µM
Cc1cc(-c2cc3ncccc3c(O[C@H]3CC[C@H](O)CC3)n2)ccc1N(C)C [Example 2],71.9%,–
"Cc1cc(-c2cc3ncccc3c(N3CC[C@@H](CN)C3)n2)ccc1N(C)C [Example 3, 5-(aminomethylpyrrolidin-1-yl)-7-(4-dimethylamino-3-methylphenyl)-[1,6]naphthyridine]",–,88.2%
Cc1cc(-c2cc3ncccc3c(NCCc3cn[nH]c3)n2)ccc1N(C)C [Example 6],85.2%,–
"Cc1cc(-c2cc3ncccc3c(-n3cc(CCO)cn3)n2)ccc1N(C)C [Example 12, 5-(4-hydroxyethyl-pyrazolyl)-7-(4-dimetyhlamino-3-methylphenyl)-[1,6]naphthyridine]",–,105%
"Cc1cc(-c2cc3ncccc3c(NC3CC3)n2)ccc1N(C)C [Example 20, 5-(cyclopropylamino)-7-(4-dimethylamino-3-methylphenyl)-[1,6]naphthyridine]",–,90.2%
Cc1cc(-c2cc3ncccc3c(O[C@H]3CC[C@@H](O)CC3)n2)ccc1N(C)C [Example 1],85.2%,–
"COc1nc(-c2ccc(N(C)C)c(C)c2)cc2ncccc12 [Example 17, 5-methoxy-7-(4-dimethylamino-3-methylphenyl)-[1,6]naphthyridine]",–,73.2%
